From ChEMBL document CHEMBL1201862, “PubChem BioAssay data set” (2004)
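Growth conditions: 96-well plates. Treatment: test compound, 48 hours, 5 concentrations. Analysis: linear interpolation between bracketing concentrations; unreached endpoints set to highest concentration. GI50: concentration for 50% inhibition of growth.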 Activity calls are given as the source filed them. No stated cut-off is given here; in the data, active = GI50 up to about 1.1 µM and inactive = higher.

Tests used:
Assay in all cases: NCI tumour cell line growth inhibition, 48 h
EKVX = system: EKVX
KM12 = system: KM12
PC-3 = system: PC-3
MOLT-4 = system: MOLT-4
OVCAR-8 = system: OVCAR-8
NCI/ADR-RES = system: NCI/ADR-RES
OVCAR-3 = system: OVCAR-3
MDA-MB-231 = system: MDA-MB-231
HCC 2998 = system: HCC 2998
HCT-116 = system: HCT-116
OVCAR-5 = system: OVCAR-5
ACHN = system: ACHN
SK-OV-3 = system: SK-OV-3
COLO 205 = system: COLO 205
LOX IMVI = system: LOX IMVI
SF-295 = system: SF-295
SK-MEL-5 = system: SK-MEL-5
SR = system: SR
RXF 393 = system: RXF 393
RPMI-8226 = system: RPMI-8226

Measured: GI50

O=C(OCc1ccccc1)N1CCN(C(=O)OCc2ccccc2)CCN(C(=O)OCc2ccccc2)CCN(C(=O)OCc2ccccc2)CCN(C(=O)OCc2ccccc2)CC1
inactive: EKVX > 100 µM | KM12 > 100 µM | PC-3 > 100 µM | MOLT-4 > 100 µM | OVCAR-8 > 100 µM | NCI/ADR-RES 79.4 µM | OVCAR-3 > 100 µM | MDA-MB-231 39.5 µM | HCC 2998 > 100 µM | HCT-116 > 100 µM | OVCAR-5 > 100 µM | ACHN > 100 µM | SK-OV-3 > 100 µM | COLO 205 31.1 µM | LOX IMVI 80 µM | SF-295 > 100 µM | SK-MEL-5 18.4 µM

CC1(C)C2CCC1(C)C(NC(=O)COCCOCC(N)=O)C2 (stereo not drawn)
inactive: SR 31.1 µM | EKVX > 100 µM | KM12 > 100 µM | PC-3 > 100 µM | MOLT-4 > 100 µM | OVCAR-8 > 100 µM | OVCAR-3 > 100 µM | MDA-MB-231 > 100 µM | HCC 2998 45 µM | HCT-116 > 100 µM | RXF 393 63.7 µM | OVCAR-5 > 100 µM | ACHN > 100 µM | SK-OV-3 > 100 µM | COLO 205 94.8 µM | SF-295 > 100 µM | SK-MEL-5 > 100 µM

O=C(Nc1cnc(O)nc1O)C(Cl)Cl
inactive: EKVX > 100 µM | KM12 > 100 µM | PC-3 > 100 µM | MOLT-4 > 100 µM | OVCAR-8 > 100 µM | NCI/ADR-RES > 100 µM | OVCAR-3 > 100 µM | MDA-MB-231 > 100 µM | HCC 2998 > 100 µM | HCT-116 > 100 µM | RXF 393 > 100 µM | ACHN > 100 µM | SK-OV-3 > 100 µM | RPMI-8226 > 100 µM | COLO 205 > 100 µM | LOX IMVI > 100 µM | SF-295 > 100 µM | SK-MEL-5 > 100 µM

Cc1ccc(S(=O)(=O)NC(=O)NCC(N)=O)cc1
inactive: KM12 > 100 µM | PC-3 > 100 µM | MOLT-4 > 100 µM | OVCAR-8 > 100 µM | NCI/ADR-RES > 100 µM | MDA-MB-231 > 100 µM | HCT-116 > 100 µM | RXF 393 > 100 µM | OVCAR-5 > 100 µM | ACHN > 100 µM | SK-OV-3 > 100 µM | RPMI-8226 > 100 µM | COLO 205 > 100 µM | LOX IMVI > 100 µM | SF-295 > 100 µM | SK-MEL-5 > 100 µM

CC(/C=C/C(O)=C1/C(=O)CNC1=O)=C\[C@@H](C)[C@H]1O[C@@]2(C)O[C@H](C(=O)[C@@H]3O[C@@]32C)[C@@H]1C
inactive: EKVX 17.7 µM | KM12 20 µM | PC-3 14 µM | MOLT-4 14.7 µM | OVCAR-8 20.2 µM | NCI/ADR-RES 26.6 µM | OVCAR-3 18.9 µM | MDA-MB-231 18.4 µM | HCT-116 18.9 µM | RXF 393 1.14 µM | OVCAR-5 18.3 µM | ACHN 19.6 µM | SK-OV-3 21.5 µM | RPMI-8226 12.2 µM | COLO 205 20.7 µM | LOX IMVI 14.5 µM | SK-MEL-5 17.5 µM

O=C(c1cccs1)N1CCCN(C(=O)c2cccs2)C1=S
inactive: EKVX 52.2 µM | KM12 > 100 µM | PC-3 > 100 µM | MOLT-4 > 100 µM | OVCAR-8 > 100 µM | NCI/ADR-RES > 100 µM | OVCAR-3 > 100 µM | MDA-MB-231 > 100 µM | HCT-116 > 100 µM | RXF 393 36.1 µM | OVCAR-5 > 100 µM | ACHN > 100 µM | SK-OV-3 > 100 µM | RPMI-8226 > 100 µM | COLO 205 > 100 µM | LOX IMVI > 100 µM | SF-295 > 100 µM | SK-MEL-5 > 100 µM
